From patent US20070275925A1, “ASTHMA DIAGNOSIS AND THERAPY” (REGENTS OF THE UNIVERSITY OF CALIFORNIA, priority 2006, published 2007)
“Also recorded” adds a separate entry of the source.

What was measured:
epithelial brushings = assay: Microarray gene expression in epithelial brushings, randomized placebo-controlled trial of inhaled fluticasone; format: in vivo, human
Description: In three cross sectional studies and a clinical trial, epithelial brushings were collected by bronchoscopy from 42 subjects with asthma, 16 current smokers without asthma, and 28 healthy controls. Cross-sectional studies comprised 2 visits, the first for characterization and the second for bronchoscopy. The clinical trial was a 10 week, randomized, double-blind, placebo-controlled trial specifically designed to determine the effects of inhaled fluticasone (500 μg twice daily) on airway gene expression and to relate gene expression changes to improvements in lung function (FIG. 1). Bronchoscopy was performed at baseline and repeated 1 week after starting study drug. Thirty-five subjects had adequate baseline bronchoscopy and 32 had RNA available from epithelial brushings at both bronchoscopies. Lung function was measured at intervals over the 8-week treatment period. Epithelial RNA from a subset of the subjects studied by microarray here have been used in other PCR based gene expression studies performed by our group.^4 Additional information is provided in the supplementary appendix.
(§1) Brushings yielded 1,300,000±800,000 cells of which 97±3% were epithelial. For microarray analysis, […] total epithelial RNA was amplified using NuGen Ovation RNA amplification system. Then 2.75 μg sscDNA was hybridized to Affymetrix U133 plus 2.0 arrays (>54,000 probe sets coding for 38,500 genes). Array images were analyzed using Affymetrix GeneChip Expression Analysis Software. Bioconductor^5 was used for quality control (affyPLM algorithm), preprocessing (RMA algorithm), cluster analysis, and linear modeling.^5-7 Raw array data are available from the Gene Expression Omnibus public database (http://www.ncbi.nlm.nih.gov/geo/, accession number pending). Selected microarray findings were confirmed by real-time PCR, enzyme linked immunosorbent assay (ELISA) or immunohistochemistry. In vitro studies of the effects of interleukin-13 (IL-13) on expression of selected genes were performed using primary airway epithelial cells grown at an air-liquid interface (additional detail in supplementary appendix).
For between group comparisons, t-test, rank-sum test or ANOVA followed by pair-wise analyses with Sidak correction were used as appropriate. Correlation of mRNA copy number by PCR (log transformed for normality) and lung function was performed using Pearson correlation. STATA version 9 software was used (StataCorp, College Station Tex.), and p<0.05 was taken as statistically significant. In microarray analyses, differential gene expression was assessed using linear models (controlling for age and gender). For between group comparisons, a Bonferroni corrected p-value<0.05 was used to identify differentially expressed genes. For the placebo-controlled trial, changes in gene expression from baseline to post-intervention were calculated and the mean changes in the fluticasone and placebo groups were compared. A two-fold change (either higher or lower in the fluticasone group as compared to placebo), was used to identify differentially expressed genes. Microarray analyses were performed using Bioconductor open source software^5 in the R statistical environment.
Protocol: This was a 6 visit, 10 week, randomized, double-blind, placebo-controlled trial specifically designed to determine the effects of inhaled fluticasone on airway gene expression and to relate those gene expression changes to improvements in lung function. After a one-week run-in/characterization period, subjects were randomized to receive 2 puffs BID of fluticasone propionate (250 μg/puff) or matching placebo for 8 weeks, followed by a one week run-out. Subjects were randomized in blocks designed to yield a greater number of subjects randomized to fluticasone as compared to placebo in order to maximize our ability to relate gene expression to lung function improvements within the intervention group. […]

[1] = test system: airway epithelial brushings; assay: Taqman / real-time PCR gene expression in airway epithelial brushings, fluticasone trial; format: in vivo, human
Description: as §1
In further analysis of the same dataset we have identified six genes (Table 4) which are differentially expressed in airway epithelial brushings from asthmatics asthma or altered by corticosteroid treatment of asthmatic subjects and which have not previously been implicated in asthma or in the mechanism of steroid benefit in asthma.

[2] = fluticasone arm as compared to the placebo arm
[3] = fluticasone group as compared to placebo group, baseline to 1 week
[4] = fluticasone group, baseline to 1 week, asthmatics
[5] = one week of treatment, n = 16, greater than one indicates suppression

Compound: CCC(=O)O[C@]1(C(=O)SCF)[C@H](C)C[C@H]2[C@@H]3C[C@H](F)C4=CC(=O)C=C[C@]4(C)[C@@]3(F)[C@@H](O)C[C@@]21C [fluticasone, fluticasone propionate]
- CST1 gene expression in airway epithelial brushing from asthmatics treated with inhaled fluticasone (epithelial brushings; additional gene profiling experiments): upregulated
- CST1 reduction by array (epithelial brushings; [2]): 2 fold
- PRR4 gene expression change with fluticasone (epithelial brushings; fluticasone arm as compared to the placebo arm, asthmatic airway epithelial cells): only modestly reduced; also recorded: no significant change
- Fold-difference Combined, 227061_at (CDNA FLJ44429 fis) (epithelial brushings; [3]): 2.0 fold
- Fold-difference Combined, 228854_at (Transcribed locus) (epithelial brushings; [3]): 10.5 fold
- Fold-difference Combined, 228858_at (Transcribed locus) (epithelial brushings; [3]): 2.8 fold
- Fold-difference Combined, 230782_at (CDNA FLJ33419 fis) (epithelial brushings; [3]): 2.2 fold
- Fold-difference Combined, 231262_at (Transcribed locus) (epithelial brushings; [3]): 2.8 fold
- Fold-difference Combined, 244677_at (epithelial brushings; [3]): 2.3 fold
- Fold-difference Combined, C6 (epithelial brushings; [3]): 2.2 fold
- Fold-difference Combined, C14orf78 (epithelial brushings; [3]): 2.1 fold
- Fold-difference Combined, CLCA1 (epithelial brushings; [3]): −2.4 fold
- Fold-difference Combined, CST1 (epithelial brushings; [3]): −2.1 fold
- Fold-difference Combined, FKBP51 (epithelial brushings; [3]): 4.4 fold
- Fold-difference Combined, FXYD1 (epithelial brushings; [3]): 2.1 fold
- Fold-difference Combined, GAS1 (epithelial brushings; [3]): 3.3 fold
- Fold-difference Combined, GPR109B (epithelial brushings; [3]): 2.4 fold
- Fold-difference Combined, HBA2 (epithelial brushings; [3]): 2.7 fold
- Fold-difference Combined, HBB (epithelial brushings; [3]): 2.1 fold
- Fold-difference Combined, HIF3A (epithelial brushings; [3]): 2.7 fold
- Fold-difference Combined, KLF9 (epithelial brushings; [3]): 2.4 fold
- Fold-difference Combined, LOC157381 (epithelial brushings; [3]): 2.1 fold
- Fold-difference Combined, MUC13 (epithelial brushings; [3]): −2.0 fold
- Fold-difference Combined, PHACTR3 (epithelial brushings; [3]): 3.2 fold
- Fold-difference Combined, POSTN (epithelial brushings; [3]): −2.1 fold
- Fold-difference Combined, PPP1R16B (epithelial brushings; [3]): 2.4 fold
- Fold-difference Combined, SERPINB2 (epithelial brushings; [3]): −2.9 fold
- Fold-difference Combined, TFCP2L1 (epithelial brushings; [3]): 3.0 fold
- Fold-difference Combined, TSC22D3 (epithelial brushings; [3]): 2.5 fold
- Fold-difference Combined, TU3A (epithelial brushings; [3]): 2.8 fold
- Fold-difference Combined, UBD (epithelial brushings; [3]): −2.1 fold
- Fold-difference Combined, UBE2H (epithelial brushings; [3]): 2.1 fold
- Fold-difference Combined, WIPI49 (epithelial brushings; [3]): 2.0 fold
- Fold-difference Flovent, 227061_at (CDNA FLJ44429 fis) (epithelial brushings; [4]): 1.6 fold
- Fold-difference Flovent, 228854_at (Transcribed locus) (epithelial brushings; [4]): 7.3 fold
- Fold-difference Flovent, 228858_at (Transcribed locus) (epithelial brushings; [4]): 2.4 fold
- Fold-difference Flovent, 230782_at (CDNA FLJ33419 fis) (epithelial brushings; [4]): 2.1 fold
- Fold-difference Flovent, 231262_at (Transcribed locus) (epithelial brushings; [4]): 2.4 fold
- Fold-difference Flovent, 244677_at (epithelial brushings; [4]): 1.8 fold
- Fold-difference Flovent, C6 (epithelial brushings; [4]): 1.6 fold
- Fold-difference Flovent, C14orf78 (epithelial brushings; [4]): 1.8 fold
- Fold-difference Flovent, CLCA1 (epithelial brushings; [4]): −2.7 fold
- Fold-difference Flovent, CST1 (epithelial brushings; [4]): −2.4 fold
- Fold-difference Flovent, FKBP51 (epithelial brushings; [4]): 3.6 fold
- Fold-difference Flovent, FXYD1 (epithelial brushings; [4]): 1.4 fold
- Fold-difference Flovent, GAS1 (epithelial brushings; [4]): 2.7 fold
- Fold-difference Flovent, GPR109B (epithelial brushings; [4]): 1.9 fold
- Fold-difference Flovent, HBA2 (epithelial brushings; [4]): 3.0 fold
- Fold-difference Flovent, HBB (epithelial brushings; [4]): 2.5 fold
- Fold-difference Flovent, HIF3A (epithelial brushings; [4]): 2.7 fold
- Fold-difference Flovent, KLF9 (epithelial brushings; [4]): 2.2 fold
- Fold-difference Flovent, LOC157381 (epithelial brushings; [4]): 1.7 fold
- Fold-difference Flovent, MUC13 (epithelial brushings; [4]): −1.6 fold
- Fold-difference Flovent, PHACTR3 (epithelial brushings; [4]): 3.1 fold
- Fold-difference Flovent, POSTN (epithelial brushings; [4]): −2.1 fold
- Fold-difference Flovent, PPP1R16B (epithelial brushings; [4]): 2.1 fold
- Fold-difference Flovent, SERPINB2 (epithelial brushings; [4]): −2.5 fold
- Fold-difference Flovent, TFCP2L1 (epithelial brushings; [4]): 3.1 fold
- Fold-difference Flovent, TSC22D3 (epithelial brushings; [4]): 2.0 fold
- Fold-difference Flovent, TU3A (epithelial brushings; [4]): 2.3 fold
- Fold-difference Flovent, UBD (epithelial brushings; [4]): −2.0 fold
- Fold-difference Flovent, UBE2H (epithelial brushings; [4]): 2.0 fold
- Fold-difference Flovent, WIPI49 (epithelial brushings; [4]): 1.7 fold
- CST1 reduction by taqman [1, 2]: 6 fold
- FLUTICASONE Change AVERAGE, CEACAM5 (ratio of gene expression before and after treatment) [1, 5]: 1.88
- FLUTICASONE Change AVERAGE, CST1 (ratio of gene expression before and after treatment) [1, 5]: 5.97
- FLUTICASONE Change AVERAGE, CST4 (ratio of gene expression before and after treatment) [1, 5]: 5.41
- FLUTICASONE Change AVERAGE, HDAC9 (ratio of gene expression before and after treatment) [1, 5]: 2.10
- FLUTICASONE Change AVERAGE, SERPINB1 (ratio of gene expression before and after treatment) [1, 5]: 2.31
